According to US6911443B2 (Bayer Aktiengesellschaft, priority 2000, dated 2005):
Like-named read-outs stand apart in the source and are kept apart here.

Biological target: T1, human Syk (GST-Syk) (Homo sapiens, UniProt P43405)
T1 construct: A cDNA fragment encoding human Syk openreading frame was cloned; made in house; host or cells: Sf21 insect cells (baculovirus, transfer vector pAcG2T)
Test: Syk tyrosine kinase inhibitory assay
Assay type: biochemical
From the text: [Syk Tyrosine Kinase Inhibitory Assay]
(1) Preparation of Syk Protein
A cDNA fragment encoding human Syk openreading frame was cloned from total RNA of human Burkitt's lymphoma B cell lines, Raji (American Type Culture Collection), with the use of RT-PCR method. The cDNA fragment was inserted into pAcG2T (Pharmingen, San Diego, Calif.) to construct a baculovirus transfer vector. Then the vector, together with the linearized baculovirus (BaculoGold™, Pharmingen), was used to transfect Sf21 cells (Invitrogen, San Diego, Calif.).
Generated recombinant baculovirus was cloned and amplified in Sf21 cells. Sf21 cells were infected with this amplified high titer virus to produce a chimeric protein of Syk kinase fused by glutathione-S-transferase (GST).
The resulting GST-Syk was purified with the use of glutathione column (Amersham Pharmacia Biotech AB, Uppsala, Sweden) according to the manufacturer's instruction.
(2) Synthesize of a Peptide
Next, a peptide fragment of 30 residues including two tyrosine residues, […], was synthesized by a peptide synthesizer. The N-terminal of the fragment was then biotinylated to obtain biotinylated activation loop peptide (AL).
(3) The Measurement of Syk Tyrosine Kinase Activity
All reagents were diluted with the Syk kinase assay buffer (50 mM Tris-HCl (pH 8.0), 10 mM MgCl2, 0.1 mM Na3VO4, 0.1% BSA, 1 mM DTT). First, a mixture (35 μl) including […] of GST-Syk and 0.5 μg of AL was put in each well in 96-well plates. Then 5 μl of a test compound in the presence of 2.5% dimethylsulfoxide (DMSO) was added to each well. To this mixture was added […] (10 μl) to initiate the kinase reaction. The final reaction mixture (50 μl) consists of 0.65 nM GST-Syk, 3 μM AL, 30 μM ATP, a test compound, 0.25% DMSO, and a Syk kinase assay buffer.
The mixture was incubated for 1 hr at room temperature, and the reaction was terminated by the addition of 120 μl of termination buffer (50 mM Tris-HCl (pH 8.0), 10 mMEDTA, 500 mM NaCl, 0.1% BSA). The mixture was transferred to streptavidin-coated plates and incubated for 30 min at room temperature to combine biotin-AL to the plates. After washing the plates with Tris-buffered saline (TBS) (50 mM Tris-HCl (pH 8.0), 138 mM NaCl, 2.7 mM KCl) containing 0.05% Tween-20 for 3 times, 100 μl of antibody solution consisting of 50 mM Tris-HCl (pH 8.0), 138 mM NaCl, 2.7 mM KCl, 1% BSA, 60 ng/ml anti-phosphotyrosine monoclonal antibody, 4G10 (Upstate Biotechnology), which is labeled with europium by Amersham Pharmacia's kit in advance, was added and incubated at room temperature for 60 min. After washing, 100 μl of enhancement solution (Amersham pharmacia Biotech) was added and then time-resolved fluorescence was measured by multi-label counter ARVO (Wallac Oy, Finland) at 340 nm for excitation and 615 nm for emission with 400 msec of delay and 400 msec of window.

[1] = in vitro, compounds as yielded by solid phase synthesis, purity about 40 to 90%, read-out: Activity grade (IC50 class)
[2] = Table 17, IC50 classes, read-out: Activity grade
[3] = Table 11, read-out: Activity grade
[4] = Table 13, read-out: Activity grade
[5] = Table 15, read-out: Activity grade
[6] = Table 16, read-out: Activity grade

IC50 [1]	Compound	other results
< 500 nM	COc1ccc(-c2cc3nccn3c(Nc3ccc(C)cc3)n2)cc1OC [Example 11-9]	
< 500 nM	COc1ccc(-c2cc3nccn3c(Nc3ccc(S(=O)(=O)N4CCCC4)cc3)n2)cc1OC [Example 11-115]	
< 500 nM	COc1ccc(-c2cc3nccn3c(Nc3cccc(S(N)(=O)=O)c3)n2)cc1OC [Example 11-114]	
< 500 nM	COc1ccc(-c2cc3nccn3c(N(C)c3ccc(F)cc3F)n2)cc1OC [Example 11-44]	
< 500 nM	COc1ccc(-c2cc3nccn3c(Nc3ccc(OCCN4CCOCC4)cc3)n2)cc1OC [Example 11-91]	
500 to 2000 nM	COC(=O)C1CCc2cc(Sc3nc(-c4ccc(OC)c(OC)c4)cc4nccn34)ccc2C1 (stereo not drawn) [Example 13-23]	
< 500 nM	COc1cc(-c2cc3nccn3c(Sc3ccc(CCC(=O)O)cc3)n2)ccc1O [Example 13-27]	
< 500 nM	COc1ccc(-c2cc3nccn3c(Nc3cccc(O)c3)n2)cc1OC [Example 11-30]	
< 500 nM	COc1ccc(-c2cc3nccn3c(Nc3ccc(Br)cc3Cl)n2)cc1OC [Example 11-88]	
< 500 nM	COc1ccc(-c2cc3nccn3c(Nc3ccc(NCCN4CCOCC4)cc3)n2)cc1OC [Example 11-82]	
< 500 nM	COc1ccc(-c2cc3nccn3c(N(CCC#N)c3ccccc3)n2)cc1OC [Example 11-48]	
< 500 nM	C=CCN(c1ccccc1)c1nc(-c2ccc(OC)c(OC)c2)cc2nccn12 [Example 11-47]	
< 500 nM	COc1ccc(-c2cc3nccn3c(Nc3cc(F)c(F)cc3F)n2)cc1OC [Example 11-40]	
< 500 nM	COc1ccc(-c2cc3nccn3c(Nc3ccc(N)cc3)n2)cc1OC [Example 11-62]	
< 500 nM	COc1ccc(-c2cc3nccn3c(Nc3ccc(O)cc3)n2)cc1OC [Example 11-29]	
< 500 nM	COc1ccc(-c2cc3nccn3c(Nc3ccc(C(=O)NCC(=O)O)cc3)n2)cc1OC [Example 11-23]	
< 500 nM	COc1ccc(-c2cc3nccn3c(Nc3cc(F)cc(F)c3)n2)cc1OC [Example 11-39]	

More lines, now with the values behind:

Compound	IC50 [1]	other results
CCSc1nc(-c2ccc(O)c(O)c2)cc2nccn12 [material for Example 6, 4-(5-Ethylsulfanyl-imidazo[1,2-c]pyrimidin-7-yl)-benzene-1,2-diol]	2000 to 10000 nM	
COc1ccc(-c2cc3nccn3c(NC(=O)c3ccccc3)n2)cc1OC [Example 16]	< 500 nM	IC50 [2]: 500 to 2000 nM
COCCCN(C)c1ccc(-c2cc3nccn3c(Nc3ccc(OC)cc3)n2)cc1OC [Example 12-56]		IC50 [3]: < 500 nM
COc1ccc(-c2cc3nccn3c(SC3CCCCC3)n2)cc1OC [Example 14-29]		IC50 [4]: < 500 nM
COCCN(C)c1ccc(-c2cc3nccn3c(Nc3ccc(Br)cc3)n2)cc1OC [Example 12-46]		IC50 [3]: < 500 nM
COc1cc(-c2cc3nccn3c(Nc3ccc4cn[nH]c4c3)n2)ccc1N1CCOCC1 [Example 12-59]		IC50 [3]: < 500 nM
COc1ccc(-c2cc3nccn3c(N3CCN(c4ccc(C(F)(F)F)cn4)CC3)n2)cc1OC [Example 9-50]		Activity grade (IC50 class) (in vitro, compounds as yielded by solid phase synthesis, purity about 40 to 90%): C-D
COc1ccc(-c2cc3nccn3c(N3CCN(C(C)=O)CC3)n2)cc1OC [Example 9-49]	500 to 2000 nM	
COc1ccc(-c2cc3nccn3c(Sc3ccc(S(=O)(=O)N4CCCCC4)cc3)n2)cc1OC [Example 16-2]		IC50 [5]: < 500 nM
CCSc1nc(-c2ccc(OC)c(OC)c2)cc2nc(C)cn12 [Example 1-8]	< 500 nM	
COc1ccc(-c2cc3nccn3c(Nc3cc(N(C)C)ccc3C(N)=O)n2)cc1OC [Example 13]	< 500 nM	IC50 [2]: < 500 nM
COc1ccc(-c2cc3nccn3c(Nc3ccc(Br)cc3)n2)cc1OC [Example 12-12]		IC50 [3]: < 500 nM
CCC(C)Sc1nc(-c2ccc(OC)c(OC)c2)cc2nccn12 (stereo not drawn) [Example 14-20]		IC50 [4]: < 500 nM
CCSc1nc(-c2ccc(C)c(S(=O)(=O)N3CCN(CCO)CC3)c2)cc2nccn12 [Example 2-1]	500 to 2000 nM	
CCSc1nc(-c2ccc(SC)c(S(=O)(=O)N3CCN(CCO)CC3)c2)cc2nccn12 [Example 2-4]	500 to 2000 nM	
COc1ccc(-c2cc3nccn3c(SCCN)n2)cc1OC [Example 25]		IC50 [2]: < 500 nM
CCSc1nc(-c2ccc(OCCCN3CCSCC3)c(OC)c2)cc2nccn12 [Example 5-9]	< 500 nM	
COc1ccc(-c2cc3nccn3c(SCCN(C(C)C)C(C)C)n2)cc1OC [Example 14-19]		IC50 [4]: 500 to 2000 nM
CCSc1nc(-c2ccc(OC)cc2)cc2nccn12 [Example 1-5]	500 to 2000 nM	
CCSc1nc(-c2ccc(OC)c(OCCCN3CCOCC3)c2)cc2nccn12 [Example 5-11]	500 to 2000 nM	
COc1cc(-c2cc3nccn3c(Nc3ccccc3)n2)ccc1OCc1ccccc1 [Example 12-18]		IC50 [3]: 500 to 2000 nM
CCSc1nc(-c2ccc(OCC3CCCCO3)c(OC)c2)cc2nccn12 (stereo not drawn) [Example 3-4]	< 500 nM	
COc1ccc(-c2cc3nccn3c(Nc3ccc(CCN4C(=O)c5ccccc5C4=O)cc3)n2)cc1OC [Example 9-26]	500 to 2000 nM	
CCSc1nc(-c2ccc(NCc3ccccc3)c(OC)c2)cc2nccn12 [Example 17-9]		IC50 [6]: 2000 to 10000 nM

Compound	IC50 [1]	other results
CCOc1ccc2nc(Nc3nc(-c4ccc(OC)c(OC)c4)cc4nccn34)sc2c1 [Example 12-6]		IC50 [3]: 500 to 2000 nM
COc1ccc(-c2cc3nccn3c(SCc3ccc(F)cc3)n2)cc1OC [Example 14-30]		IC50 [4]: 500 to 2000 nM
COc1cc(-c2cc3nccn3c(Nc3ccccc3C(N)=O)n2)ccc1N1CCOCC1 [Example 9-99]	< 500 nM	
CCOc1ccc(-c2cc3nccn3c(SCC)n2)cc1OCC [Example 6-1]	< 500 nM	
COc1ccc(-c2cc3nccn3c(Nc3ccccc3)n2)cc1NC(C)=O [Example 3]		IC50 [2]: < 500 nM
COc1ccc(-c2cc3nccn3c(N3CCC(c4ccc(O)cc4)CC3)n2)cc1OC [Example 9-60]	500 to 2000 nM	
COc1ccc(-c2cc3nccn3c(N3CCN(c4ccc(C)cc4)CC3)n2)cc1OC [Example 9-44]	2000 to 10000 nM	
COc1ccc(-c2cc3nccn3c(Sc3ccc4c(c3)CCC(C(=O)O)C4)n2)cc1OC (stereo not drawn) [Example 19]		IC50 [2]: < 500 nM
COc1ccc(-c2cc3nccn3c(NCc3ccccc3)n2)cc1OC [Example 9-10]	500 to 2000 nM	
COc1ccc(-c2cc3nccn3c(Sc3nnnn3C)n2)cc1OC [Example 16-1]		IC50 [5]: < 500 nM
CCSc1nc(-c2ccc(OC)c(OC(=O)N(C)C)c2)cc2nccn12 [Example 4-10]		IC50 (Activity grade (IC50 class), in vitro, compounds as yielded by solid phase synthesis, purity about 40 to 90%): 500 to 2000 nM
COc1ccc(-c2cc3ncnn3c(Nc3cccc(N)n3)n2)cc1OC [Example 9-16]	< 500 nM	
COC(=O)CCCc1ccc(Nc2nc(-c3ccc(OC)c(OC)c3)cc3nccn23)cc1 [Example 9-25]	500 to 2000 nM	
COCCN(C)c1ccc(-c2cc3nccn3c(Nc3ccccc3)n2)cc1OC [Example 12-41]		IC50 [3]: < 500 nM
CCSc1nc(-c2ccc(OC)c(OCCN3CCOCC3)c2)cc2nccn12 [Example 5-12]	500 to 2000 nM	
COc1ccc(-c2cc3nccn3c(N3CC[C@H](N(C)C)C3)n2)cc1OC [Example 9-78]	2000 to 10000 nM	
COc1ccc(-c2cc3nccn3c(Sc3ccc(CCC(=O)NCCC#N)cc3)n2)cc1OC [Example 23]		IC50 [2]: < 500 nM
CCN(Cc1ccncc1)c1nc(-c2ccc(OC)c(OC)c2)cc2nccn12 [Example 9-52]	500 to 2000 nM	
CCSc1nc(-c2ccc(NCCCN3CCCC3=O)c(OC)c2)cc2nccn12 [Example 17-3]		IC50 [6]: < 500 nM
CCSc1nc(-c2ccc(OC)c(NCCCN(C)C)c2)cc2nccn12 [Example 17-6]		IC50 [6]: < 500 nM
COc1ccc(CSc2nc(-c3ccc(OC)c(OC)c3)cc3nccn23)cc1 [Example 14-1]		IC50 [4]: 500 to 2000 nM
CCN(CC)c1nc(-c2ccc(OC)c(OC)c2)cc2nccn12 [Example 9-56]	500 to 2000 nM	
CCSc1nc(-c2ccc(OCCN3CC(C)OC(C)C3)c(OC)c2)cc2nccn12 (stereo not drawn) [Example 5-14]	< 500 nM	
